Tests used:
[1] = molecular target: human TYK2 (JH2domain-pseudokinase) (Homo sapiens (Human), UniProt P29597); assay: TYK2 JH2 Domain Binding Assay (KINOMEscan); details: 11-point 3-fold dilution, top concentration 30,000 nM, duplicate; read-out: hTYK2_JH2_Binding (Kd; nM)
In short: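 KINOMEscan competition binding: HEK293-expressed NFkB-fused TYK2 JH2 (G556–D888), DNA-tagged, against immobilized ligand beads, 1 h shaking at room temperature, 0.9% DMSO. Bound kinase quantified by qPCR.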

[2] = test system: IL-12 induced STAT4 phosphorlyation mediated by TYK2/JAK2; assay: IL-12 Induced pSTAT4 in Human PBMC; format: cell-based; details: 1.7 ng/mL IL-12 for 30 minutes
In short: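 Thawed human PBMC pre-incubated with compound 1 hr at 37° C (0.1% DMSO final), then stimulated 30 minutes with IL-12 at 1.7 ng/mL final. pSTAT4 and total STAT4 measured in cell lysates with MSD reagents.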

Chain of human TYK2 (JH2domain-pseudokinase) (P29597 556-888): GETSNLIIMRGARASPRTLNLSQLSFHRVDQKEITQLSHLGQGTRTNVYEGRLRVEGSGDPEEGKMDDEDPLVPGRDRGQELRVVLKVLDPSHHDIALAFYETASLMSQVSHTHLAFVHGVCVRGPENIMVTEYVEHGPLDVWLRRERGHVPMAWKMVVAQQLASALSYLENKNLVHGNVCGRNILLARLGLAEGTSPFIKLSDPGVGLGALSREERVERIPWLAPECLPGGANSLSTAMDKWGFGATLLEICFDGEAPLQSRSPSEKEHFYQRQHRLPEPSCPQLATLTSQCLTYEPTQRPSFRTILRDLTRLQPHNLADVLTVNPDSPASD

Kd [1] [nM] | IC50 ([2]; 0.5 h) [µM] | IC50 [2] [µM] | Compound
< 0.2 | < 0.1 | – | CNc1cc(-c2cnc3n(C4CCOCC4)cccc2-3)nc2c(C(=O)NC3CC[C@@H]3OC)cnn12 (stereo in doubt) [Compound I-985, N-(2-methoxycyclobutyl)-7-(methylamino)-5-(7-(tetrahydro-2H-pyran-4-yl)-7H-pyrrolo[2,3-b]pyridin-3-yl)pyrazolo[1,5-a]pyrimidine-3-carboxamide]
< 0.2 | < 0.1 | – | CNc1cc(Nc2cccn([C@@H]3CCC[C@](C)(O)C3)c2=O)nc2c(C(=O)NC3CC3)cnn12 [Compound I-3, N-cyclopropyl-5-((1-((1R,3S)-3-hydroxy-3-methylcyclohexyl)-2-oxo-1,2-dihydropyridin-3-yl)amino)-7-(methylamino)pyrazolo[1,5-a]pyrimidine-3-carboxamide]
< 0.2 | < 0.1 | – | CNc1cc(Nc2cccn([C@H]3C[C@H](OC)C3)c2=O)nc2c(C(=O)NC3CC3)cnn12 [Compound I-4, N-Cyclopropyl-5-((1-((1r,3r)-3-methoxycyclobutyl)-2-oxo-1,2-dihydropyridin-3-yl)amino)-7-(methylamino)pyrazolo[1,5-a]pyrimidine-3-carboxamide]
< 0.2 | < 0.1 | – | CNc1cc(Nc2cccn([C@H]3C[C@H](OC)C3)c2=O)nc2c(C(=O)N[C@@H]3C[C@@H]3F)cnn12 [Compound I-8, N-((1R,2S)-2-Fluorocyclopropyl)-5-((1-((1r,3R)-3-methoxycyclobutyl)-2-oxo-1,2-dihydropyridin-3-yl)amino)-7-(methylamino)pyrazolo[5-a]pyrimidine-3-carboxamide]
< 0.2 | < 0.1 | – | CNc1cc(-c2cn([C@H]3CCCOC3)c3ncccc23)nc2c(C(=O)N[C@@H]3CC[C@@H]3O)cnn12 [Compound I-14, N-((1R,2S)-2-Hydroxycyclobutyl)-7-(methylamino)-5-(1-((S)-tetrahydro-2H-pyran-3-yl)-1H-pyrrolo[2,3-b]pyridin-3-yl)pyrazolo[1,5-a]pyrimidine-3-carboxamide]
< 0.2 | – | < 0.1 | CNc1cc(Nc2cccn([C@H]3CC[C@H](OC)CC3)c2=O)nc2c(C(=O)N[C@@H]3C[C@H]3OC)cnn12 [Compound I-31, 5-((1-((1r,4R)-4-Methoxycyclohexyl)-2-oxo-1,2-dihydropyridin-3-yl)amino)-N-((1R,2R)-2-methoxycyclopropyl)-7-(methylamino)pyrazolo[1,5-a]pyrimidine-3-carboxamide]
< 0.2 | – | < 0.1 | CNc1cc(Nc2cccn([C@H]3CC[C@H](OC)CC3)c2=O)nc2c(C(=O)N[C@H]3C[C@@H]3OC)cnn12 [Compound I-32, 5-((1-((1r,4S)-4-Methoxycyclohexyl)-2-oxo-1,2-dihydropyridin-3-yl)amino)-N-((1S,2S)-2-methoxycyclopropyl)-7-(methylamino)pyrazolo[1,5-a]pyrimidine-3-carboxamide]
0.2 to 1 | < 0.1 | – | CNc1cc(Nc2cccn(C3CC(F)(F)C3)c2=O)nc2c(C(=O)N[C@H]3CC[C@H](O)C3)cnn12 [Compound I-41, 5-((1-(3,3-Difluorocyclobutyl)-2-oxo-1,2-dihydropyridin-3-yl)amino)-N-((1S,3S)-3-hydroxycyclopentyl)-7-(methylamino)pyrazolo[1,5-a]pyrimidine-3-carboxamide]
< 0.2 | < 0.1 | – | CNc1cc(Nc2cccn([C@H]3C[C@@H]3F)c2=O)nc2c(C(=O)N[C@H]3CC[C@@H]3OC)cnn12 [Compound I-49, 5-((1-((1S,2S)-2-Fluorocyclopropyl)-2-oxo-1,2-dihydropyridin-3-yl)amino)-N-((1S,2S)-2-methoxycyclobutyl)-7-(methylamino)pyrazolo[1,5-a]pyrimidine-3-carboxamide]
< 0.2 | – | < 0.1 | CNc1cc(Nc2cccn([C@@H]3C[C@H]3F)c2=O)nc2c(C(=O)N[C@@H]3CC[C@H]3OC)cnn12 [Compound I-53, 5-((1-((1R,2R)-2-Fluorocyclopropyl)-2-oxo-1,2-dihydropyridin-3-γ1)amino)-N-((1R,2R)-2-methoxycyclobutyl)-7-(methylamino)pyrazolo[1,5-a]pyrimidine-3-carboxamide]
< 0.2 | – | 0.1 to 0.5 | CNc1cc(Nc2cccn(-c3ccccn3)c2=O)nc2c(C(N)=O)cnn12 [Compound I-119]
< 0.2 | – | < 0.1 | CNc1cc(Nc2cccn([C@H]3C[C@H](F)C3)c2=O)nc2c(C(=O)N[C@H]3C[C@@H]3OC)cnn12 [Compound I-138]
< 0.2 | – | < 0.1 | CNc1cc(Nc2cccn([C@H]3C[C@H](OC)C3)c2=O)nc2c(C(=O)NC3CCC3)cnn12 [Compound I-141]
< 0.2 | – | < 0.1 | CNc1cc(Nc2cccn([C@H]3[C@@H]4COC[C@@H]43)c2=O)nc2c(C(=O)NC3CCC3)cnn12 [Compound I-142]
< 0.2 | – | < 0.1 | CNc1cc(Nc2cccn(C3CCOCC3)c2=O)nc2c(C(=O)NC3CCC3)cnn12 [Compound I-143]
< 0.2 | – | < 0.1 | CNc1cc(Nc2cccn(-c3ocnc3C)c2=O)nc2c(C(=O)NC3CCC3)cnn12 [Compound I-144]
< 0.2 | – | < 0.1 | CNc1cc(Nc2cccn(C3COC3)c2=O)nc2c(C(=O)NC3CC[C@H]3F)cnn12 (some centres unmarked) [Compound I-160]
< 0.2 | – | < 0.1 | CNc1cc(Nc2cccn(C3COC3)c2=O)nc2c(C(=O)N[C@@H]3CC[C@@H]3F)cnn12 [Compound I-162]
< 0.2 | – | < 0.1 | CNc1cc(Nc2cccn(C3COC3)c2=O)nc2c(C(=O)NC3CC[C@@H]3F)cnn12 (some centres unmarked) [Compound I-163]
< 0.2 | – | < 0.1 | CNc1cc(Nc2cccn(-c3ocnc3C)c2=O)nc2c(C(=O)NC3CC[C@@H]3F)cnn12 (some centres unmarked) [Compound I-185]

Kd [1] [nM] | IC50 ([2]; 0.5 h) [µM] | IC50 [2] [µM] | Compound
< 0.2 | – | < 0.1 | CNc1cc(Nc2cccn(-c3ocnc3C)c2=O)nc2c(C(=O)N[C@H]3CC[C@@H]3F)cnn12 [Compound I-186]
< 0.2 | – | 0.1 to 0.5 | CO[C@H]1CC[C@@H]1NC(=O)c1cnn2c(N)cc(Nc3cccn(-c4ccccn4)c3=O)nc12 [Compound I-246]
< 0.2 | – | – | O=C(NC1CC1)c1cnn2c3c(c(Nc4cccn(C5CCOCC5)c4=O)nc12)OCCN3 [Compound I-748]
< 0.2 | – | – | O=C(NC1CC1)c1cnn2c3c(c(Nc4cccc5ocnc45)nc12)OCCN3 [Compound I-749]
< 0.2 | – | – | O=C(N[C@@H]1C[C@@H]1F)c1cnn2c3c(c(Nc4cccn(C5CCOCC5)c4=O)nc12)OCCN3 [Compound I-751, N-((1R,2S)-2-Fluorocyclopropyl)-5-((2-oxo-1-(tetrahydro-2H-pyran-4-yl)-1,2-dihydropyridin-3-yl)amino)-2,3-dihydro-1H-pyrazolo[5′,1′:2,3]pyrimido[5,4-b][1,4]oxazine-7-carboxamide]
< 0.2 | – | – | CC(C)n1cc(-c2nc3c(C(=O)N[C@@H]4CC[C@@H]4O)cnn3c3c2OCCN3)c2cccnc21 [Compound I-755]
< 0.2 | – | – | O=C(N[C@@H]1CC[C@H]1F)c1cnn2c3c(c(-c4cn([C@H]5C[C@H](O)C5)c5ncccc45)nc12)OCCN3 [Compound I-758]
> 10 | – | – | CO[C@@H]1CC[C@H]1NC(=O)c1cnn2c3c(c(Nc4cccn([C@H]5[C@@H]6COC[C@@H]65)c4=O)nc12)OCCN3 [Compound I-763]
< 0.2 | – | – | CO[C@H]1CC[C@@H]1NC(=O)c1cnn2c3c(c(Nc4cccn([C@H]5[C@@H]6COC[C@@H]65)c4=O)nc12)OCCN3 [Compound I-764]
< 0.2 | – | – | CC(C)n1cccc(Nc2nc3c(C(=O)N[C@@H]4CCC4(F)F)cnn3c3c2OCCN3)c1=O [Compound I-767]
> 10 | – | – | O=C(N[C@H]1CCC1(F)F)c1cnn2c3c(c(Nc4cccn([C@H]5[C@@H]6COC[C@@H]65)c4=O)nc12)OCCN3 [Compound I-770]
< 0.2 | – | – | O=C(N[C@H]1CCC1(F)F)c1cnn2c3c(c(-c4cn(C5COC5)c5ncccc45)nc12)OCCN3 [Compound I-773]
< 0.2 | – | – | CNc1cc(-c2cnc3n([C@@H]4COC[C@H]4OC)cccc2-3)nc2c(C(=O)N[C@@H]3C[C@@H]3F)cnn12 [Compound I-822]
< 0.2 | – | – | CNc1cc(-c2cnc3n([C@H]4COC[C@@H]4OC)cccc2-3)nc2c(C(=O)N[C@@H]3C[C@@H]3F)cnn12 [Compound I-823]
< 0.2 | – | – | CNc1cc(-c2ccc(N3CC[C@H](OC)C3)c3nccn23)nc2c(C(=O)NC3CC[C@H]3O)cnn12 (some centres unmarked) [Compound I-907]
< 0.2 | – | – | CNc1cc(-c2cn([C@H]3C[C@@H](COC)C3)c3ncccc23)nc2c(C(=O)N[C@@H]3CC[C@H]3OC)cnn12 [Compound I-934]
< 0.2 | – | – | CNc1cc(-c2cnc3n(CC(=O)N(C)C)cccc2-3)nc2c(C(=O)NC3CC[C@@H]3OC)cnn12 (some centres unmarked) [Compound I-961]
< 0.2 | – | – | CNc1cc(-c2cnc3n(CC(=O)N4CC5(COC5)C4)cccc2-3)nc2c(C(=O)N[C@@H]3CC[C@H]3OC)cnn12 [Compound I-1013]
1 to 10 | – | – | CNc1cc(-c2cn([C@H]3CO[C@@H](COC)C3)c3ncccc23)nc2c(C(=O)N[C@@H]3CC[C@H]3OC)cnn12 [Compound I-1019, N-((1R,2R)-2-methoxycyclobutyl)-5-(1-(5-(methoxymethyl)tetrahydrofuran-3-yl)-1H-pyrrolo[2,3-b]pyridin-3-yl)-7-(methylamino)pyrazolo[1,5-a]pyrimidine-3-carboxamide]
0.2 to 1 | – | – | CNc1cc(-c2cnc3n(C4CCN(CCOC)CC4)cccc2-3)nc2c(C(=O)N[C@@H]3CC[C@H]3OC)cnn12 [Compound I-1021, N-((1R,2R)-2-methoxycyclobutyl)-5-(7-(1-(2-methoxyethyl)piperidin-4-yl)-7H-pyrrolo[2,3-b]pyridin-3-yl)-7-(methylamino)pyrazolo[1,5-a]pyrimidine-3-carboxamide]

Source: US11414431B2, “Substituted pyrazolo[1,5-a]pyrimidines as TYK2 inhibitors” (Nimbus Lakshmi, Inc., priority 2018, dated 2022)
